Legend:
Rattus norvegicus [1] = experiment: Antiinflammatory activity in Wistar rat assessed as reduction in carrageenan-induced paw edema at 100 mg/kg, po treated 2 hrs before carrageenan challenge measured after 3 hrs; type: functional
Rattus norvegicus [2] = experiment: Antiinflammatory activity in Wistar rat assessed as reduction in carrageenan-induced paw edema at 20 mg/kg, po treated 2 hrs before carrageenan challenge measured after 3 hrs; type: functional
Rattus norvegicus [3] = experiment: Toxicity in po dosed Wistar rat assessed as gastric irritation at 20 to 100 mg/kg, po; type: organism-based, Stomach; set-up: dose 20-100 mg/kg, route oral; settings: in vivo
Rattus norvegicus [4] = experiment: Antiinflammatory activity in po dosed Wistar rat assessed as reduction in carrageenan-induced paw edema treated 2 hrs before carrageenan challenge measured after 3 hrs; type: functional
[5] = Toxicity in po dosed Wistar rat; type: organism-based; settings: in vivo
Rattus norvegicus [6] = experiment: Toxicity in po dosed Wistar rat assessed as gastric irritation at 10 to 50 mg/kg, po; type: organism-based, Stomach; set-up: dose 10-50 mg/kg, route oral; settings: in vivo
Rattus norvegicus [7] = experiment: Antiinflammatory activity in Wistar rat assessed as reduction in carrageenan-induced paw edema at 50 mg/kg, po treated 2 hrs before carrageenan challenge measured after 3 hrs; type: functional
Rattus norvegicus [8] = experiment: Antiinflammatory activity in Wistar rat assessed as reduction in carrageenan-induced paw edema at 10 mg/kg, po treated 2 hrs before carrageenan challenge measured after 3 hrs; type: functional

Row | Structure (SMILES) | inhibition in vivo at 100 mg/kg (Rattus norvegicus [1]) [%] | inhibition in vivo at 20 mg/kg (Rattus norvegicus [2]) [%] | Activity (Rattus norvegicus [3]) | ED50 (Rattus norvegicus [4]) [mg/kg] | LD50 [5] [mg/kg] | Activity (Rattus norvegicus [6]) | inhibition in vivo at 50 mg/kg (Rattus norvegicus [7]) [%] | inhibition in vivo at 10 mg/kg (Rattus norvegicus [8]) [%]
1 | CC1(C)Cc2cc(CC(=O)O)cc(Cl)c2O1 | 37 | 30 | Toxic |  |  |  |  | 
2 | CC1Cc2cc(CC(=O)O)cc(Cl)c2O1 (configuration not stated) | 27 | 20 | Toxic |  |  |  |  | 
3 | CC1(C)Cc2cc(CC(=O)O)ccc2O1 | 32 | 25 | Toxic |  |  |  |  | 
4 | CC1Cc2cc(C(C)C(=O)O)cc(Cl)c2O1.NC1CCCCC1 (configuration not stated) | 57 | 35 | Toxic |  |  |  |  | 
5 | CC1(C)Cc2cc(CC(N)=O)cc(Cl)c2O1 | 31 | 25 | Toxic |  |  |  |  | 
6 | CC1Cc2cc(CC(N)=O)cc(Cl)c2O1 (configuration not stated) | 17 | 2 | Toxic |  |  |  |  | 
7 | CC1(C)Cc2cc(CCCC(=O)O)cc(Cl)c2O1 | 32 | 32 | Toxic |  |  |  |  | 
8 | CC1(C)Cc2cc(C(=O)CCC(=O)O)cc(Cl)c2O1 | 37 | 24 | Toxic |  |  |  |  | 
9 | CC1(C)Cc2cc(CC(N)=O)ccc2O1 | 20 | 15 | Toxic |  |  |  |  | 
10 | CC(C(=O)O)c1cc(Cl)c2c(c1)CC(C)(C)O2 (configuration not stated) | 58 | 45 | Toxic | 45 | 720 |  |  | 
11 | CC1(C)Cc2cc(CC(=O)NO)ccc2O1 | 9 | 5 | Toxic |  |  |  |  | 
12 | CC1Oc2c(Cl)cc(CC(=O)O)cc2C1C.NC1CCCCC1 (configuration not stated) | 30 | 24 | Toxic |  |  |  |  | 
13 | CC1(C)Cc2cc(C(=O)/C=C/C(=O)O)cc(Cl)c2O1 | 3 | 9 | Toxic |  |  |  |  | 
14 | CC1(C)Cc2cc(CC(=O)NO)cc(Cl)c2O1 | 13 | 7 | Toxic |  |  |  |  | 
15 | CCCCC1C(=O)N(c2ccccc2)N(c2ccccc2)C1=O [PHENYLBUTAZONE] |  |  |  |  |  | Toxic | 51 | 24
